Experimental findings from US20170112760A1, “CELL DELIVERY SYSTEM AND METHOD” (The Queen's University of Belfast, priority 2014, published 2017) are described below.

Where two headings read alike, the source gives them in different places. Ends that are not written are not given here.

Series [1] concerns PC-3 prostate cancer cell xenograft. Put plainly: PC-3 xenograft model, intratumoural RALA/alendronate. It is filed as in vivo, BALB-C SCID mice. The settings on record: thrice weekly.
For series [2], the system named is PC-3 prostate cancer cells. The series can be described thus: Cell proliferation assay (manual cell counts), bisphosphonates and RALA/BP nanoparticles. The settings on record: for maximum cell kill: FIG. 51.
Procedure: FIG. 51: Cell viability was evaluated by manual counting of the viable adherent cells using a haemocytometer. PC-3 prostate cancer cells were seeded in a 96-well flat-bottom tissue culture plate at a density of 1×10^4 cells per well and incubated in complete culture medium for 24 h. Two hours prior to transfection the cells were conditioned in OptiMEM serum-free medium and subsequently treated with solutions of BP to achieve a final exposure concentration of 5 μM to 1 mM. RALA/BP nanoparticles were prepared using a mass ratio of 10:1 such that the final concentration of BP per well was in the range 5 μM to 75 μM. Cells were incubated at 37° C. with 5% CO2 for 6 h before medium was replaced with completed culture medium and left to incubate for 72 h. Following incubation the cells were trypsinised and counted. Cell viability was expressed as a percentage of the untreated control where the untreated control is considered to be 100% viable. Dose-response curves were obtained for free BP and RALA/BP allowing determination of EC50 values for each. EC50 values refer to the concentration that induces a response halfway between the baseline and the maximum plateau obtained.
Cell viability was evaluated by manual counting of the viable adherent cells using a haemocytometer as described in. PC-3 prostate cancer cells were seeded in a 96-well flat-bottom tissue culture plate at a density of 1×10^4 cells per well and incubated in complete culture medium for 24 h. Two hours prior to transfection the cells were conditioned in OptiMEM serum-free medium (Invitrogen, UK) optimised for transfection. Cells were treated with solutions of BP to achieve a final exposure concentration of 5 μM to 1 mM. RALA/BP nanoparticles were prepared using a mass ratio of 10:1 such that the final concentration of BP per well was in the range 5 μM to 75 μM. Cells were incubated at 37° C. with 5% CO2 for 6 h before medium was replaced with completed culture medium and left to incubate for 72 h. Following incubation the cells were trypsinised and counted. Cell viability was expressed as a percentage of the untreated control where the untreated control is considered to be 100% viable. Dose-response curves were obtained for free BP and RALA/BP allowing determination of EC50 values for each. EC50 values refer to the concentration that induces a response halfway between the baseline and the maximum plateau obtained (FIG. 46, 51).
For the next series, the system named is ZR-75-1 cells. The series can be described thus: Transfection with peptide/pEGFP-N1 nanoparticles, GFP expression by flow cytometry. Format: cell-based. The settings on record: for Transfection Efficiency in ZR-75-1 Cells: peptide/DNA nanoparticles, N:P10. Here is the method:
In order to test the RALA in vitro, small scale transfections were performed carried out. 5×10^4 cells were seeded onto each well of a 96 well plate and the cells incubated under with complete medium standard conditions for 48 hours. The medium was subsequently removed from the plates and 100 μl of transfection medium (Optimem Invitrogen, UK) was added to each well. Cells were incubated for 2 hours at 37° C. and 5% CO2 standard conditions. In the meanwhile complexes were made up using 1 μg of plasmid DNA with the RALA vector and added to the cells when the two hours had passed. 100 μl of the each N:P ratio were added to each well of the cells. Cells were then incubated for a further 4 hours under standard conditions and the medium with RPMI-1640 supplemented with +10% FCS. (FIG. 4, 31(+Chloroquine), 32 (+Bafilomycin), 33 (+KALA NPs), 34 (+Lipofectamine), 35).
ZR-75-1 & PC-3 cells that were transfected with RALA/pEGFP-N1 complexes were trypsinised and washed twice with 2% formaldehyde in phosphate buffered saline. The expression of green fluorescent protein was measured by flow cytometry using FACS calibur system (BD Bioscience, UK). The data was analysed using the Flo-Jo software program and fluorescent intensity is reported at 4% gating. (FIG. 7b, 11, 31, 32, 33, 34, 35, 57 (+RAT/pEGFP-N1)).
(In general: In flow cytometry, cells or beads pass a laser one at a time.)

The nature of series [3]: Nanoparticle size and charge analysis (DLS, zeta potential, Malvern Zetasizer). The settings on record: peptide/DNA nanoparticles, N:P10. It is filed as physicochemical. As to the method: In order to obtain particle size and charge distributions the mean hydrodynamic particle size measurements RALA complexes were performed using Dynamic Light Scattering (DLS). Dynamic Light Scattering is based upon the principle that when particles are illuminated with a laser, due to Brownian motion there will be scattering of the light. The intensity of the scattered light fluctuates as a result of this Brownian motion caused by bombardment of the particles by solvent molecules. A correlation curve reflecting the decay rate is generated based on fluctuations of the scattered light where a slower correlation decay rate represents a slower moving particle. Based on the Stokes-Einstein equation larger particles move more slowly and, thus, the correlation function can be used to determine the size distribution of the particles. dynamic light scattering (DLS) was used.
Surface charge measurements of the RALA nanoparticles were determined by Laser Doppler Velocimetry. The zeta potential of the particles was measured using disposable foltable zeta cuvettes. Zeta cuvettes for the measurement of zeta potential were first washed with 70% ethanol, followed by two rinses with double distilled H2O prior to loading the sample. Enough diluted sample used for size measurement was used for determination of zeta potential.
The nanoparticles were made up at an appropriate range of N:P ratios with at least using 2 μg of DNA in each sample. Nanoparticles were analysed using either and analysis was completed on either the Zetasizer-HS3000 (Malvern Instruments) or the Zetasizer-Nano instrument with DTS software (Malvern Instruments, UK). Zetasizer-Nano (Malvern Instruments) (FIGS. 3, 9, 17-21, 41, 48 & 55).

Series [4] is described as follows: Immune response on repeated intravenous administration (ELISAs, Greiss test). Format: in vivo, C57/BL6 mice. The settings on record: first week. As to the method:
FIG. 8: Immune response of C57BL/6 mice injected with PBS only, PEI only, RALA only, DNA only, PEI/DNA or RALA/DNA nanoparticles. For each injection the equivalent to N:P 10 with 10 μg of DNA was injected. Mice received one injection per week for three weeks. 48 h after each injection three mice were sacrificed and the serum was extracted for analysis. a) IgG, b) IgM, c) IL-1β, d) IL-6 and e) Greiss test for total nitrites.
For the harvesting of blood and intraperitoneal macrophages, cervical dislocation was the preferred method of euthanasia. Cardiac puncture was performed using a 21 G gauge needle (BD Biosciences, UK). The needle was placed horizontally slightly to the left side of the sternum to go up through the diaphragm. The needle was then withdrawn very slowly until 500 μl of blood was collected and placed in an eppendorf. The eppendorf was then stored at room temperature with an open lid to facilitate coagulation. After 30 min the eppendorfs were centrifuged at 2000 rpm for 10 min. The supernatant containing the serum was carefully decanted and placed into a clean eppendorf and stored at −20° C. until further use. When harvesting intraperitoneal macrophages an incision was made and the peritoneal cavity was flushed out with 30% sucrose (Sigma, UK) solution. The macrophages were stored at 4° C. until they could be cultured (FIG. 8). […]

By EC50 is commonly meant the concentration giving half of the maximal effect. As to `NCCCC(O)(P(=O)(O)O)P(=O)(O)O` [alendronate], in series [1], the “effect on tumour growth vs untreated control” value is on record as “high statistical significance when compared to the untreated control”. Further, the EC50 in series [2] (FIG. 16: 10 μM to 250 μM, six hours, 72 hours recovery) was 97.9 µM; in series [2] (FIG. 51: 6 h treatment, 72 h incubation, mass ratio 10:1), 100 µM.

As to `CC(O)(P(=O)(O)O)P(=O)(O)O` [etidronate], in series [2] (FIG. 51d), the “percentage cell survival with increasing BP” value is “no reduction in percentage cell survival with increasing BP”. In series [2], `O=P(O)(O)C(O)(Cc1cccnc1)P(=O)(O)O` [risedronate] yielded a 50% effective concentration (EC50) of 78 µM and a maximum cell kill of 20%. Consider `O=P(O)(O)C(O)(Cn1ccnc1)P(=O)(O)O` [zoledronate], for which, in series [2], the EC50 was 27.6 µM and the maximum cell kill stood at 82%. Take “REARLARALARALARELARALARALRAREA (amphipathic peptide sequence (Table 2)) [Peptide 6, H Replaced with E and W replaced with R and C replaced with R]”: the “Transfection Efficiency in ZR-75-1 Cells” value in the series on ZR-75-1 cells is given as 43%. In addition, in series [3], the “Best Size (nm)” value stood at 308 nm and the “Charge (mV)” value is 6 mV.

As to “REARLARALARALARLARALARALRACEA (amphipathic peptide sequence (Table 2)) [Peptide 4, H Removed and W replaced with R]”, the “Transfection Efficiency in ZR-75-1 Cells” value in the series with ZR-75-1 cells is given as 50%. For the same compound, the “Charge (mV)” value in series [3] is 12 mV. As to “REARLARALARALARLARALARALRAREA (amphipathic peptide sequence (Table 2)) [Peptide 5, H Removed and W replaced with R and C replaced with R]”, in the series with ZR-75-1 cells, the “Transfection Efficiency in ZR-75-1 Cells” value was determined as 46%. In addition, in series [3], the “Charge (mV)” value was 13 mV. The corresponding values for “WEARLARALARALARELARALARALRACEA (amphipathic peptide sequence (Table 2)) [Peptide 3, H replaced with glutamic acid (E)]” are 41% and 24 mV.

For the compound WEARLARALARALARHLARALARALRACEA [RALA], the TNFα response result in series [4] was “significantly lower initial response of TNFα than the PEI only treated animals”.

On to “WEARLARALARALARHLRACEA (22mer protein sequence (Table 2)) [Peptide 22mer, comparative peptide, reference compound]”, for which, in the series with ZR-75-1 cells, the “ability to condense DNA into nanoparticles and transfect cells” value was “unable to condense DNA into nanoparticles and transfect cells”. “WEARLARALARALARLARALARALRACEA (amphipathic peptide sequence (Table 2)) [Peptide 2, H removed]”: the “Transfection Efficiency in ZR-75-1 Cells” value in the series with ZR-75-1 cells worked out at 55%. The “Charge (mV)” value in series [3] amounted to 22 mV.
